Patent publication US10335399B2, “Chromane, isochromane and dihydroisobenzofuran derivatives as mGluR2—negative allosteric modulators, compositions, and their use” (Merck Sharp & Dohme Corp., priority 2016, dated 2019)

Target: recombinant human mGluR2 (Homo sapiens (Human), UniProt Q14416)
Test: FLIPR Ca2+ mobilization assay: inhibition of glutamate-dependent mGluR2 activity
Type: cell-based
Conditions: CHO dhfr- cells stably expressing recombinant human mGluR2 and Gα16, Fluo-4 AM, FLIPR384; inhibition of response to 2,500 nM glutamate
Method: Inhibition constants (IC50s; the concentration of compound required to provide 50% of maximal activity) are determined as follows. The compounds of the invention were tested in a fluorescence laser imaging plate reader based assay. This assay is a common functional assay to monitor Ca^2+ mobilization in whole cells expressing recombinant receptor coupled with a promiscuous G-protein. CHO (Chinese hamster ovary) dhfr− cells stably expressing recombinant human mGluR2 and Gα16 loaded with Fluo-4 AM (Invitrogen, Carlsbad Calif., USA) were treated with various concentrations of each of the tested compounds of the invention and the Ca^2+ response was monitored on a FLIPR384 instrument (Molecular Devices, Sunnydale Calif., USA). […] The maximum calcium response at each concentration of compound for agonist or antagonist were plotted as dose responses and the curves were fitted with a four parameter logistic equation giving IC50 and Hill coefficient using the iterative non-linear curve fitting software ADA (Merck & Co., Inc.). Data in the following table lists the activity of each compound to inhibit glutamate-dependent mGluR2 activity in this cellular assay.

Chain of recombinant human mGluR2 (Q14416 19-872): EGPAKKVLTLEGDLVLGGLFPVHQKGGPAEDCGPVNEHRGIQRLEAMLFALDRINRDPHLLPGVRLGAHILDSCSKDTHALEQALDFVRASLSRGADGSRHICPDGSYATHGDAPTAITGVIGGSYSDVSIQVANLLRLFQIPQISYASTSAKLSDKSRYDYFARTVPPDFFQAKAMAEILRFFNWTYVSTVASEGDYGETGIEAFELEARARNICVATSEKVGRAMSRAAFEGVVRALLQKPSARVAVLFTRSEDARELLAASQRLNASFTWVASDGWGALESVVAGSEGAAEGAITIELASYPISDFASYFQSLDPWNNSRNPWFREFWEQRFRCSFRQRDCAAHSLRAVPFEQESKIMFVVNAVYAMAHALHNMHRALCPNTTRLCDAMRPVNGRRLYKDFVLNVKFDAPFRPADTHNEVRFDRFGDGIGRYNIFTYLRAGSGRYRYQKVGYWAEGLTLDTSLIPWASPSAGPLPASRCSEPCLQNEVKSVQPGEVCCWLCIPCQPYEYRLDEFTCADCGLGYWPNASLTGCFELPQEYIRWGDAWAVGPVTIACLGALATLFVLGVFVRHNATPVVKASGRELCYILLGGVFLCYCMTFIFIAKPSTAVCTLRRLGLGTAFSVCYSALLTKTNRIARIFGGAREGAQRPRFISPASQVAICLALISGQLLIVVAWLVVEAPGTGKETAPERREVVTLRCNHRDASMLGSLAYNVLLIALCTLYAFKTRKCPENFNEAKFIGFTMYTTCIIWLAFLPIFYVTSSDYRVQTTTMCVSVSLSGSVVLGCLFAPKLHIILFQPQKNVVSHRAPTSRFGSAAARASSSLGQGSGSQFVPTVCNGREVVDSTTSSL

Compound	IC50 [nM]
NC(=O)c1cc(-c2ccc(F)cc2F)c2c(n1)O[C@@H](CNCC(F)(F)F)CC2 (single isomer, unassigned) [Example 4-2B]	28
NC(=O)c1cc(-c2ccc(F)cc2F)c2c(n1)[C@H]1CC[C@@H]2O1 (single isomer, unassigned) [Example 5-1A]	159
NC(=O)c1cc(-c2ccc(F)cc2F)c2c(n1)[C@@H]1CC[C@H]2O1 (single isomer, unassigned) [Example 5-1B]	500
NC(=O)c1cc(-c2ccc(F)cc2F)c2c(n1)COCC2 [Example 1-1, 4-(2,4-difluorophenyl)-5,8-dihydro-6H-pyrano[3,4-b]pyridine-2-carboxamide]	277
NC(=O)c1cc(-c2ccc(F)cc2F)c2c(n1)[C@H]1CC[C@@H](C2)O1 [Example 1-2A, (6S,9R)-4-(2,4-difluorophenyl)-6,7,89-tetrahydro-5H-6,9-epoxycyclohepta[b]pyridine-2-carboxamide]	376
NC(=O)c1cc(-c2ccc(F)cc2F)c2c(n1)O[C@H](CO)CC2 [Example 2-1A, (S)-5-(2,4-difluorophenyl)-2-(hydroxmethyl)-3,4-dihydro-2H-pyrano[2,3-b]pyridine-7-carboxamide]	38
C[C@@H]1Cc2c(-c3ccc(F)cc3F)cc(C(N)=O)nc2O[C@@H]1CO [Example 2-2A, (2S,3R)-5-(2,4-difluorophenyl)-2-(hydroxymethyl)-3-methyl-3,4-dihydro-2H-pyrano[2,3-b]pyridine-7-carboxamide]	195
C[C@H]1Cc2c(-c3ccc(F)cc3F)cc(C(N)=O)nc2O[C@@H]1CO [Example 2-2B, (2S,3S)-5-(2,4-difluorophenyl)-2-(hydroxymethyl)-3-methyl-3,4-dihydro-2H-pyrano[2,3-b]pyridine-7-carboxamide]	15
C[C@@H]1Cc2c(-c3ccc(F)cc3F)cc(C(N)=O)nc2O[C@H]1CO [Example 2-2C, (2R,3R)-5-(2,4-difluorophenyl)-2-(hydroxymethyl)-3-methyl-3,4-dihydro-2H-pyrano[2,3-b]pyridine-7-carboxamide]	35
C[C@H]1Cc2c(-c3ccc(F)cc3F)cc(C(N)=O)nc2O[C@H]1CO [Example 2-2D, (2R,3S)-5-(2,4-difluorophenyl)-2-(hydroxmethyl)-3-methyl-3,4-dihydro-2H-pyrano[2,3-b]pyridine-7-carboxamide]	81
NC(=O)c1cc(-c2ccc(F)cc2F)c2c(n1)O[C@@H](C1CC1)CC2 [Example 2-3A, (R)-2-cyclopropyl-5-(2,4-difluorophenyl)-3,4-dihydro-2H-pyrano[2,3-b]pyridine-7-carboxamide]	20
NC(=O)c1cc(-c2ccc(F)cc2F)c2c(n1)O[C@H](C1CC1)CC2 [Example 2-3B, (S)-2-cyclopropyl-5-(2,4-difluorophenyl)-3,4-dihydro-2H-pyrano[2,3-b]pyridine-7-carboxamide]	32
CC1(C)CCc2c(-c3ccc(F)cc3F)cc(C(N)=O)nc2O1 [Example 2-5, 5-(2,4-difluorophenyl)-2,2-dimethyl-3,4-dihydro-2H-pyrano[2,3-b]pyridine-7-carboxamide]	6
CC1(C)COc2nc(C(N)=O)cc(-c3ccc(F)cc3F)c2C1 [Example 2-7, 5-(2,4-difluorophenyl)-3,3-dimethyl-3,4-dihydro-2H-pyrano[2,3-b]pyridine-7-carboxamide]	25
C[C@@H](OC(F)F)[C@@H]1CCc2c(-c3ccc(F)cc3F)cc(C(N)=O)nc2O1 [Example 2-9B, (S)-2-((R)-1-(difluoromethoxy)ethyl)-5-(2,4-difluorophenyl)-3,4-dihydro-2H-pyrano[2,3-b]pyridine-7-carboxamide]	114
C[C@H](OC(F)F)[C@H]1CCc2c(-c3ccc(F)cc3F)cc(C(N)=O)nc2O1 [Example 2-9C, (R)-2-((S)-1-(difluoromethoxy)ethyl)-5-(2,4-difluorophenyl)-3,4-dihydro-2H-pyrano[2,3-b]pyridine-7-carboxamide]	11
C[C@@H](OC(F)F)[C@H]1CCc2c(-c3ccc(F)cc3F)cc(C(N)=O)nc2O1 [Example 2-9D, (R)-2-((R)-1-(difluoromethoxy)ethyl)-5-(2,4-difluorophenyl)-3,4-dihydro-2H-pyrano[2,3-b]pyridine-7-carboxamide]	57
NC(=O)c1cc(-c2ccc(F)cc2F)c2c(n1)O[C@@H](COC(F)F)CC2 [Example 3-1A, (R)-2-((difluoromethoxy)methyl)-5-(2,4-difluorophenyl)-3,4-dihydro-2H-pyrano[2,3-b]pyridine-7-carboxamide]	7
NC(=O)c1cc(-c2ccc(F)cc2F)c2c(n1)O[C@H](COC(F)F)CC2 [Example 3-1B, (S)-2-((difluoromethoxy)methyl)-5-(2,4-difluorophenyl)-3,4-dihydro-2H-pyrano[2,3-b]pyridine-7-carboxamide]	19
NC(=O)c1cc(-c2ccc(F)cc2F)c2c(n1)O[C@@H](C(F)F)CC2 [Example 3-7A, (R)-2-(difluoromethyl)-5-(2,4-difluorophenyl)-3,4-dihydro-2H-pyrano[2,3-b]pyridine-7-carboxamide]	18
NC(=O)c1cc(-c2ccc(F)cc2F)c2c(n1)O[C@H](C(F)F)CC2 [Example 3-7B, (S)-2-(difluoromethyl)-5-(2,4-difluorophenyl)-3,4-dihydro-2H-pyrano[2,3-b]pyridine-7-carboxamide]	90
C[C@@H]1Cc2c(-c3ccc(F)cc3F)cc(C(N)=O)nc2O[C@H]1COC(F)F [Example 3-9C, (2R,3R)-2-((difluoromethoxy)methyl)-5-(2,4-difluoropheny)-3-methyl-3,4-dihydro-2H-pyrano[2,3-b]pyridine-7-carboxamide]	15
NC(=O)c1cc(-c2ccc(F)cc2F)c2c(n1)O[C@H](CNCC(F)(F)F)CC2 [Example 4-2A, (S)-5-(2,4-difluoropheny)-2-(((2,2,2-trifluoroethyl)amino)methyl)-3,4-dihydro-2H-pyrano[2,3-b]pyridine-7-carboxamide]	21
